Experiments:
THP‐1 cells = experiment: Cell viability endpoint assay (Celltiter Blue, 72 h); assay type: cell-based; details: Homo sapiens, mean±SD from two independent experiments
Procedure, shortened: (§1)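 Proteasome inhibitors were tested at 1 nM to 10 μM final on 50.000 cells/well in RPMI-1640 with 0.1 % FBS, plated overnight beforehand, at 37 °C and 5 % CO2. Reagent was incubated 120 minutes before the fluorescence read. IC50 came from a sigmoidal fit of technical triplicates, as the mean of two independent experiments.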

Jurkat cells = experiment: as above; assay type: cell-based; details: Homo sapiens, mean±SD from two independent experiments
Procedure, shortened: as §1

MV4‐11 cells = experiment: as above; assay type: cell-based; details: Homo sapiens, MV4-11, mean±SD from two independent experiments
Procedure, shortened: as §1

Danio rerio embryos [1] = experiment: Danio rerio embryo toxicity assay (not dechorionated); assay type: in vivo
Method: Danio rerio embryo toxicity assay. Fish keeping protocols are approved by the Darmstadt administrative authority and documented. All fish were treated humanely. […] Embryos were decollated into separate wells containing a total volume of 200 μL and the inhibitor at the given concentration.

Danio rerio embryos [2] = experiment: Danio rerio escape response (neurotoxicity) assay, dechorionated embryos; assay type: in vivo; details: for Survived (embryos of 4): dechorionated
Method: Danio rerio escape response assay. 24 hours past fertilization embryos were dechorionated and transferred into 96‐well plates containing 198 μL of E3 media at 26 °C. […] Incubation times were 24 h, 48 h and 72 h. Survival of the embryos was determined by visual analysis of heart‐beat. For recording the touch evoked escape response, embryos were transferred to a microscopy slide with cavity that is placed on a SL‐300 LED Soft Light (Dörr, Neu‐Ulm, Germany) under a MotionBlitz EoSens mini1‐1 MC1370 high speed camera (Mikrotron, Unterschleißheim, Germany, Figure S18). An escape response was triggered by a touch stimulus at the trunk of embryos using a small sewing needle, which is slightly blunted. For each embryo, a maximum of 50 stimuli was applied. […] No escape response was determined if only one embryo was alive at 96 hpf. Movement was recorded at 96 hpf at 500 frames per second for 3 seconds using the MotionBlitzDirector 2 software. Determination of the amplitude α defined by the body angle spanned between the head, yolk and tail using a MATLAB‐based software tool and plotted using GraphPad Prism 7.02.

in vitro = assay type: cell-based; details: human
Method: Remarkably, in THP‐1 cells the initial cytotoxicity is increasing for 3 compared to 27 until 14 h treatment (9‐fold) but is approaching to the end of the assay.
Time‐dependent determination of cell viability. For the determination of time‐dependent cytotoxic activity 5.000 cells per well were plated in a white 384 well‐plate in RPMI‐1640 medium supplemented with 0.1 % FBS. Real‐Time Glo MT cell viability assay (Promega) and inhibitor were added to the final concentration and luminescence was determined using a Tecan M1000 microplate reader at the time points indicated (SI chapter 2b, Figure S9–S17, Table S2).

[3] = target: T1, β2c subunit of isolated human 20S proteasome (Homo sapiens, UniProt Q99436); experiment: Proteasome inhibition assay (20 S Proteasome Assay Kit, Bz‐VGR‐AMC); assay type: biochemical; details: c = 1 µM, n=1; read-out: Inhibition cCP β2
T1 construct: purchased Enzo Life Sciences
Procedure, shortened: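 Isolated 20S proteasome (200 ng/well) was preincubated 30 min with inhibitor, then Bz-VGR-AMC (100 μM final) was added for 60 min and fluorescence read. Single-point residual activity was taken at 100 nM or 1 μM; IC50 was fitted from duplicates, mean of three independent experiments.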

[4] = Danio rerio (zebrafish) embryos, in vivo
[5] = Danio rerio (zebrafish) embryos, in vivo, 24 h, 25 μM
[6] = Danio rerio (zebrafish) embryos, in vivo, 24 h, 50 µM
[7] = Danio rerio (zebrafish) embryos, in vivo, 48 h, 25 μM
[8] = Danio rerio, in vivo, 24 h, 25 µM
[9] = Danio rerio, in vivo, 24 h, 50 µM
[10] = Danio rerio, in vivo, 48 h, 25 µM

Q: Which IC50 (THP‐1 cells) does the source give for `Cc1cc(C)c(Oc2ccccc2)cc1NC(=O)C(=O)[C@H](CC(C)C)NC(=O)[C@H](CC(C)C)NC(=O)[C@H](CC(C)C)NC(=O)c1cc(Cl)ccc1Cl` [Compound 27, 2,5‐Dichloro‐N‐((S)‐1‐(((S)‐1‐(((S)‐1‐((2,4‐dimethyl‐5‐phenoxyphenyl)amino)‐5‐methyl‐1,2‐dioxo‐hexan‐3‐yl)amino)‐4‐methyl‐1‐oxopentan‐2‐yl)amino)‐4‐methyl‐1‐oxopentan‐2‐yl)benzamide] here?
A: 0.066 ± 0.001 µM

Q: What about the IC50 (Jurkat cells) of the same molecule?
A: 0.011 ± 0.001 µM

Q: What about the IC50 (MV4‐11 cells) of the same molecule?
A: 0.0074 ± 0.0026 µM

Q: And the “Survival of embryos (not dechorionated)” value (Danio rerio embryos [1]; 1 µM, 24 h)?
A: 100%

Q: What about the “Survival of embryos (not dechorionated)” value (Danio rerio embryos [1]; 1 µM, 48 h) of the same molecule?
A: 100%

Q: And the “Survival of embryos (not dechorionated)” value (Danio rerio embryos [1]; 1 µM, 72 h)?
A: 100%

Q: What about the “Survival of embryos (not dechorionated)” value (Danio rerio embryos [1]; 1 µM, 96 h) of the same molecule?
A: 100%

Q: And the “Survival of embryos (not dechorionated)” value (Danio rerio embryos [1]; 5 µM, 24 h)?
A: 100%

Q: What about the “Survival of embryos (not dechorionated)” value (Danio rerio embryos [1]; 5 µM, 48 h) of the same molecule?
A: 100%

Q: And the “Survival of embryos (not dechorionated)” value (Danio rerio embryos [1]; 5 µM, 72 h)?
A: 100%

Q: And the “Survival of embryos (not dechorionated)” value (Danio rerio embryos [1]; 5 µM, 96 h)?
A: 100%

Q: And the “Survival of embryos (not dechorionated)” value (Danio rerio embryos [1]; 10 µM, 24 h)?
A: 100%

Q: What about the “Survival of embryos (not dechorionated)” value (Danio rerio embryos [1]; 10 µM, 48 h) of the same molecule?
A: 100%

Q: What about the “Survival of embryos (not dechorionated)” value (Danio rerio embryos [1]; 10 µM, 72 h) of the same molecule?
A: 100%

Q: And the “Survival of embryos (not dechorionated)” value (Danio rerio embryos [1]; 10 µM, 96 h)?
A: 100%

Q: What about the “Survival of embryos (not dechorionated)” value (Danio rerio embryos [1]; 25 µM, 24 h) of the same molecule?
A: 100%

Q: What about the “Survival of embryos (not dechorionated)” value (Danio rerio embryos [1]; 25 µM, 48 h) of the same molecule?
A: 100%

Q: And the “Survival of embryos (not dechorionated)” value (Danio rerio embryos [1]; 25 µM, 72 h)?
A: 100%

Q: And the “Survival of embryos (not dechorionated)” value (Danio rerio embryos [1]; 25 µM, 96 h)?
A: 100%

Q: What about the Fold-response (Danio rerio embryos [2]; [4]) of the same molecule?
A: 29

Q: What about the “Relative reflexes / Stimuli, Mean” value (Danio rerio embryos [2]; [4]) of the same molecule?
A: 0,81

Q: What about the “Number of movements per 100 ms, Difference between means” value (Danio rerio embryos [2]; [5]) of the same molecule?
A: 0,4767 ± 0,4422

Q: What about the “Reflex Duration” value (Danio rerio embryos [2]; [5]) of the same molecule?
A: 295,3 ± 28,5 ms

Q: What about the “Relative reflexes / Stimuli” value (Danio rerio embryos [2]; [5]) of the same molecule?
A: 1,000

Q: And the “mean reflexes per stimuli” value (Danio rerio embryos [2]; [5])?
A: 100%

Q: What about the “C-Bend Duration” value (Danio rerio embryos [2]; [6]) of the same molecule?
A: 19,2 ± 2,2 ms

Q: And the “Number of movements per 100 ms, Difference between means” value (Danio rerio embryos [2]; [6])?
A: 0,4019 ± 0,4349

Q: What about the “Number of total movements, Difference between means” value (Danio rerio embryos [2]; [6]) of the same molecule?
A: 16,56 ± 4,371

Q: And the “Relative reflexes / Stimuli” value (Danio rerio embryos [2]; [6])?
A: 1,000

Q: What about the “mean reflexes per stimuli” value (Danio rerio embryos [2]; [6]) of the same molecule?
A: 100%

Q: And the “Number of movements per 100 ms, Difference between means” value (Danio rerio embryos [2]; [7])?
A: 0,545 ± 0,4127

Q: What about the “Reflex Duration” value (Danio rerio embryos [2]; [7]) of the same molecule?
A: 403,6 ± 30,9 ms

Q: And the “Relative reflexes / Stimuli” value (Danio rerio embryos [2]; [7])?
A: 0,545

Q: What about the “mean reflexes per stimuli” value (Danio rerio embryos [2]; [7]) of the same molecule?
A: 55%

Q: What about the “C-Bend Amplitude, Difference between means” value (Danio rerio embryos [2]; [8]) of the same molecule?
A: - 2,833 ± 19,93

Q: And the “C-Bend Duration” value (Danio rerio embryos [2]; [8])?
A: 14 ± 0,8165 ms

Q: What about the “C-Bend duration, Difference between means” value (Danio rerio embryos [2]; [8]) of the same molecule?
A: -5,667 ± 1,826

Q: And the “Number of total movements, Difference between means” value (Danio rerio embryos [2]; [8])?
A: - 2,611 ± 3,6

Q: And the “Reflex Duration” value (Danio rerio embryos [2]; [8])?
A: 295,3 ± 28,53 ms

Q: What about the “Reflex Duration, Difference between means” value (Danio rerio embryos [2]; [8]) of the same molecule?
A: - 95,33 ± 66,93

Q: And the “C-Bend Amplitude, Difference between means” value (Danio rerio embryos [2]; [9])?
A: - 7,333 ± 15,18

Q: What about the “C-Bend Duration” value (Danio rerio embryos [2]; [9]) of the same molecule?
A: 19,17 ± 2,212 ms

Q: What about the “C-Bend duration, Difference between means” value (Danio rerio embryos [2]; [9]) of the same molecule?
A: - 0,5 ± 2,458

Q: What about the “Reflex Duration” value (Danio rerio embryos [2]; [9]) of the same molecule?
A: 799 ± 91,81 ms

Q: And the “Reflex Duration, Difference between means” value (Danio rerio embryos [2]; [9])?
A: 408,3 ± 96,75

Q: What about the “C-Bend Amplitude, Difference between means” value (Danio rerio embryos [2]; [10]) of the same molecule?
A: - 9,167 ± 17,34

Q: And the “C-Bend Duration” value (Danio rerio embryos [2]; [10])?
A: 15,56 ± 0,5031 ms

Q: And the “C-Bend duration, Difference between means” value (Danio rerio embryos [2]; [10])?
A: -4,111 ± 1,464

Q: And the “Number of total movements, Difference between means” value (Danio rerio embryos [2]; [10])?
A: 1,889 ± 3,151

Q: And the “Reflex Duration” value (Danio rerio embryos [2]; [10])?
A: 403,6 ± 30,92 ms

Q: And the “Reflex Duration, Difference between means” value (Danio rerio embryos [2]; [10])?
A: 12,89 ± 59,4

Q: And the “overall survival at low doses” value (Danio rerio embryos [2]; dechorionated embryos)?
A: 58%

Q: What about the “Survived (embryos of 4)” value (Danio rerio embryos [2]; 25 µM, 24 h) of the same molecule?
A: 2

Q: And the “Survived (embryos of 4)” value (Danio rerio embryos [2]; 25 µM, 48 h)?
A: 2

Q: What about the “Survived (embryos of 4)” value (Danio rerio embryos [2]; 50 µM, 24 h) of the same molecule?
A: 3

Q: And the IC50 at 13 h (in vitro)?
A: 0.3 to 0.6 µM

Q: And the inhibition at 1 µM [3]?
A: 6%

From article PMC6916368, “Cell‐Based Optimization of Covalent Reversible Ketoamide Inhibitors Bridging the Unprimed to the Primed Site of the Proteasome β5 Subunit” (Chemmedchem, 2019)
